Data published in PubChem BioAssay (NCI).
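Exposure lasted 48 hours, with cells grown in 96-well plates and compounds tested at five concentrations. GI50 marks 50% less growth. TGI: concentration producing complete growth inhibition.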

Tests used:
Test in all cases: NCI tumour cell line growth inhibition, 48 h
COLO 205 colon = tested on: COLO 205 colon
NCI-H522 lung = tested on: NCI-H522 lung
OVCAR-3 ovarian = tested on: OVCAR-3 ovarian
OVCAR-4 ovarian = tested on: OVCAR-4 ovarian
OVCAR-5 ovarian = tested on: OVCAR-5 ovarian
SF-268 CNS = tested on: SF-268 CNS
SK-MEL-5 melanoma = tested on: SK-MEL-5 melanoma
SNB-19 CNS = tested on: SNB-19 CNS
U251 CNS = tested on: U251 CNS
UO-31 renal = tested on: UO-31 renal

Row | SMILES | GI50 (COLO 205 colon) | TGI (COLO 205 colon) | GI50 (NCI-H522 lung) | TGI (NCI-H522 lung) | GI50 (OVCAR-3 ovarian) | TGI (OVCAR-3 ovarian) | GI50 (OVCAR-4 ovarian) | TGI (OVCAR-4 ovarian) | GI50 (OVCAR-5 ovarian) | TGI (OVCAR-5 ovarian) | GI50 (SF-268 CNS) | TGI (SF-268 CNS) | GI50 (SK-MEL-5 melanoma) | TGI (SK-MEL-5 melanoma) | GI50 (SNB-19 CNS) | TGI (SNB-19 CNS) | GI50 (U251 CNS) | TGI (U251 CNS) | GI50 (UO-31 renal) | TGI (UO-31 renal)
1 | O=C1N[C@@H]2[C@@H](O)[C@@H](O)[C@H](O)C[C@H]2c2cc3c(c(O)c21)OCCO3 | 0.162 µM | 0.405 µM | 0.199 µM | 0.993 µM | 0.276 µM | 1.01 µM | 0.217 µM | 0.838 µM | 0.412 µM | 3.28 µM | 0.247 µM | 1.08 µM | 0.192 µM | 0.478 µM | 0.179 µM | 1.02 µM | 0.238 µM | 8.42 µM | 0.294 µM | 1.72 µM
2 | O=C(NCCCCN1CCOCC1)c1cc2ccccc2o1 | > 100 µM | > 100 µM | > 100 µM | > 100 µM | > 100 µM | > 100 µM | > 100 µM | > 100 µM | > 100 µM | > 100 µM | > 100 µM | > 100 µM | > 100 µM | > 100 µM | > 100 µM | > 100 µM | > 100 µM | > 100 µM | > 100 µM | > 100 µM
3 | Cc1c(C)c2ccc3oc4ccccc4c3c2oc1=O |  | > 100 µM |  | > 100 µM |  | > 100 µM |  | > 100 µM |  | > 100 µM |  | > 100 µM |  | > 100 µM |  | > 100 µM |  | > 100 µM |  | > 100 µM
4 | CCOC(=O)C1=CCCC[C@H]1S(=O)(=O)Nc1ccc(F)cc1Cl | 38.2 µM | > 100 µM | 23.1 µM | 90.1 µM | 23.2 µM | 77.3 µM | 31.2 µM | > 100 µM | 25 µM | 77.1 µM | 24.6 µM | > 100 µM | 10.5 µM | 24.5 µM | 29.4 µM | > 100 µM | 24.7 µM | > 100 µM | 20.8 µM | > 100 µM
5 | Cc1ccc(C)c(N2C(=O)C(=O)C(c3nc4ccccc4s3)/C(=N/N)C2=O)c1 (stereo not drawn) |  | > 100 µM |  | > 100 µM |  | > 100 µM |  | > 100 µM |  | > 100 µM |  | > 100 µM |  | > 100 µM |  | > 100 µM |  | > 100 µM |  | > 100 µM
6 | O=C1NC(=C(Cl)Cl)/C(=N/S(=O)(=O)N2CCCCC2)N1 | 2.01 µM | 3.88 µM | 1.59 µM | 3.39 µM | 2.09 µM | 3.78 µM | 1.8 µM | 3.47 µM | 1.87 µM | 3.63 µM | 2.43 µM | 6.53 µM |  |  | 2.38 µM | 5.34 µM | 1.71 µM | 3.12 µM | 2.87 µM | 12.4 µM
7 | CCOC(OC(C)=O)[C@@H]1C=C[C@H](C)N(c2ccc([N+](=O)[O-])cc2)O1 (stereo partly drawn) |  | 27.7 µM |  | 8.97 µM |  | 15.7 µM |  | 15.4 µM |  | 10.4 µM |  | 15.6 µM |  | 13.4 µM |  | 37.4 µM |  | 9 µM |  | 9.16 µM
